{"source": "patent US7271146B2", "about": "“Methods for treatment of Helicobacter pylori-associated disorders” (Vecta Ltd., priority 2002, dated 2007)", "key": {"[1]": {"tested_on": "H. pylori (H-88 clinical isolate)", "assay": "H. pylori growth in liquid medium, CFU counts, 48 hours", "format": "cell-based", "conditions": "48 hours incubation, FIG. 1A"}, "H. pylori": {"tested_on": "H. pylori", "assay": "H. pylori growth with omeprazole, pentagastrin, amoxycillin and combinations, monitored spectrophotometrically", "format": "cell-based", "conditions": "single or triple-combined treatment; 18, 24, 46 hours; FIG. 3", "procedure": "In an attempt to optimize the antibacterial formulation for eradication of H. pylori, the effect of pentagastrin and omeprazole provided in combination with amoxicillin was tested. Amoxicillin is a commonly accepted antibiotic used for H. pylori treatment. To investigate the effect of triple administration we tested the growth of bacteria in the presence of omeprazole, pentagastrin, amoxycillin, and their possible combinations was tested. Bacteria grown in the absence of any agent was used as a negative control. The level of bacterial growth was monitored spectrophotometrically after 18, 24, and 46 hours of treatment."}, "gastric acid secretion [2]": {"tested_on": "gastric acid secretion", "assay": "Gastric acid secretion after oral PG in pylorus-ligated rats", "format": "in vivo, Wistar Hanover rats", "conditions": "PG 50 μg P.O., vs saline", "procedure": "(§1) Male and female Wistar Hanover rats, 7-10 weeks of age, were obtained from Harlan Laboratories (Rehovot, Israel). Animals were fed standard chow and received unlimited water supply. The animals were kept in automatically controlled temperature (between 20-24° C.), a 12-hour light/dark cycle, and 15 air changes an hour.\n(§2) Rats were fasted (with water freely available) for 24 hours before experimentation. PG or saline were introduced into the stomach by means of a steel feeding needle. Thereafter, the animals were injected with Domitor and Ketaset; the abdominal wall was dissected and gastric fluid (approximately 30 μl) was collected by puncture with a needle (0.45×13 2006-09 Artsana S.P.A., Grandate (CO), Italy) at the indicated time points. Gastric juice was kept frozen at −80° C. until use. In some experiments, the rats were first anesthetized and dissected, after which test reagents were introduced by direct injection into the stomach. […]\n(§3) Frozen gastric juice was defrosted at room temperature, mixed by vortexing, and centrifuged for 5 minutes at 14,000 RPM. […] The pH was measured, and NaOH (0.001 N) was added to the sample until pH 7 was reached, as determined by measuring pH using a pH meter (pH211, Hanna Instruments, 35030 Sameola di Rubano, Italy). […]"}, "[3]": {"assay": "Blood glucose levels in pylorus-ligated rats challenged with oral PG", "format": "in vivo", "conditions": "compared to controls, FIG. 6", "procedure": "The observed effects of stimulation of gastric acid secretion may occur by different mechanisms. PG may be digested by gastric enzymes and the resulting free amino acids may stimulate acid secretion directly. Alternatively, the intact peptide may be actually absorbed from the gastric lumen and exert its effect on CCK-B receptors on the ECL and parietal cells. […] Since blood glucose levels reflect the activity of peripheral insulin, glucose levels were measured in the pylorus-ligated rats following the administration of PG or saline. These measurements served as a surrogate marker for PG-induced insulin release via activation of CCK-B receptors on the ECL and parietal cells. […] This observation supports the notion that the PG was absorbed intact and thereby could directly exert its effect on gastric tissue and stimulate secretion of gastric acid. […] B. Co-Administration of PG and Omeprazole"}, "acid secretion": {"tested_on": "acid secretion", "conditions": "oral PG, cited from earlier work"}, "gastric mucosa": {"tested_on": "gastric mucosa", "conditions": "applied to the luminal surface, in vitro bullfrog model; cited from earlier work"}, "gastric acid secretion [4]": {"tested_on": "gastric acid secretion", "assay": "Gastric acid secretion after oral PG in fasted rats, no pylorus ligation", "format": "in vivo, Wistar Hanover rats", "conditions": "PG 50 μg P.O.", "procedure": "as §1, §2, §3"}}, "note": "Like-named read-outs stand apart in the source and are kept apart here."}
{"compound": "caerulein", "values": [{"measurement": "bacterial growth, CFU counts", "setting": "[1]", "value": "inhibited bacterial growth to an extent similar to that of omeprazole"}]}
{"compound": "βAla-Trp-Met-Asp-PheNH2 [PG]", "values": [{"measurement": "bacterial growth, CFU counts", "setting": "[1]", "value": "inhibited bacterial growth to an extent similar to that of omeprazole"}, {"measurement": "inhibition of bacterial growth (spectrophotometric)", "setting": "H. pylori", "value": "moderate inhibition"}, {"measurement": "gastric acid output", "setting": "gastric acid secretion [2]; all time points, p<0.05, FIG. 5B", "value": "significantly increased"}, {"measurement": "gastric pH", "setting": "gastric acid secretion [2]; p<0.05, FIG. 5A", "value": "decreased"}, {"measurement": "blood glucose levels", "setting": "[3]", "value": "decreased"}, {"measurement": "effect on acid secretion", "setting": "acid secretion; four normal subjects", "value": "no effect"}, {"measurement": "effect on acid secretion", "setting": "acid secretion; three patients with gastrointestinal abnormalities", "value": "some effect"}, {"measurement": "effect on gastric mucosa", "setting": "gastric mucosa", "value": "did not affect the gastric mucosa"}, {"measurement": "time of maximal effect on acid secretion after oral PG", "setting": "gastric acid secretion [4]; p=0.05", "value": 30, "unit": "min"}, {"measurement": "secretion of acid into the gastric lumen", "setting": "gastric acid secretion [4]; vs saline and S.C. PG, FIG. 4", "value": "significant secretion of acid"}]}
{"compound": "CC1(C)S[C@@H]2[C@H](NC(=O)[C@H](N)c3ccc(O)cc3)C(=O)N2[C@H]1C(=O)O", "note": "[amoxicillin]", "values": [{"measurement": "inhibition of bacterial growth (spectrophotometric)", "setting": "H. pylori", "value": "moderate inhibition"}]}
